Here are results for 100 compounds from ChEMBL document CHEMBL3507680, “University of Dundee, Gates Library screen for HepG2 cell viability”.

Each structure is given as a SMILES string.

This data set can be described thus: Human HepG2 cell viability assay in 384 well format. It is filed as toxicity, cell-based. On the set-up: dose 125 nL, time 70.5 hour; cytotoxicity at 70.5 h: concentration not given beside the values. Particulars: HepG2 cells, read-out: Inhibition.
Turning to `CN1CCN(c2ccc(NS(=O)(=O)c3ccc(Cl)s3)cc2C(=O)O)CC1`, the cytotoxicity at 70.5 h is -2.11%.

With `CC1CN(C(=O)NCc2cnn(-c3ccc(F)cc3F)c2)CCO1` (stereo not given), the cytotoxicity at 70.5 h was -11.2%.

For `COCCn1cnc2ccc(NC(=O)C3CC3)cc2c1=O`, the cytotoxicity at 70.5 h was -8.53%.

For the compound `O=C(CN1CCc2onc(-c3ccccc3F)c2C1)NC1CC1`, the cytotoxicity at 70.5 h was -9.25%.

With `COc1ccc(OCCNCc2c(C)nn(C)c2N(C)C)cc1`, the cytotoxicity at 70.5 h stood at 31.1%.

Turning to `c1coc(COCc2ncn3c2CN(Cc2cccs2)CCC3)c1`, the cytotoxicity at 70.5 h is -2.67%.

In the case of `Cc1cnn(CC2CCCN2C(=O)CCc2ccc3c(c2)OCO3)c1` (stereo not given), the cytotoxicity at 70.5 h is 20.8%.

For the compound `CCCNC(=O)CNc1ccc2c(c1)N(C(=O)OC(C)(C)C)CCC2`, the cytotoxicity at 70.5 h stood at 2.81%.

As to `Cc1ccsc1CNC(=O)N(C)Cc1cnn(C)c1`, the cytotoxicity at 70.5 h is -12.7%.

Take `Cn1cc(CNCC2(O)CCCCC2)c(-c2cccnc2)n1`: the cytotoxicity at 70.5 h is -4.88%.

Regarding `Cc1noc(C)c1CN(C)Cc1csc(-c2ccc(C(C)C)cc2)n1`, the cytotoxicity at 70.5 h is 19.9%.

Consider `COc1ccnc(N2CCN(C(=O)c3cscn3)CC2)n1`, for which the cytotoxicity at 70.5 h is -2.19%.

Regarding `CC(C)=CCC1(CO)CCCN(S(=O)(=O)N2CCCC2)C1` (stereo not given), the cytotoxicity at 70.5 h is -14.7%.

Take `Cc1noc(CN(C)Cc2ccc3c(c2)OCO3)n1`: the cytotoxicity at 70.5 h is 12.4%.

Consider `COCC(=O)N1CCCC1c1cc(Nc2nnc(C)s2)nc(C)n1` (stereo not given), for which the cytotoxicity at 70.5 h came to 21.4%.

On to `CCC1=N[C@@]2(CC[C@@H]3CN(C(=O)Nc4ccc(F)cc4)C[C@@H]32)C(=O)N1`, for which the cytotoxicity at 70.5 h came to 0.571%.

Consider `N#CCCN(CCC#N)Cc1ccc(Br)c2cccnc12`, for which the cytotoxicity at 70.5 h amounted to 4.54%.

As for `Cc1cc(CNC(=O)c2ccc(C(C)N3CCCCC3)o2)[nH]n1` (stereo not given), the cytotoxicity at 70.5 h is -5.86%.

Regarding `OCC1CCCCN1CCn1ccnc1-c1ccc2c(c1)OCCO2` (stereo not given), the cytotoxicity at 70.5 h is -5.38%.

`CCc1cc(N[C@@H](CO)C(N)=O)n2nc(C)c(C)c2n1`: the cytotoxicity at 70.5 h is -2.72%.

Regarding `CCOCCC(=O)N1CCN(CC(C)O)CC1` (stereo not given), the cytotoxicity at 70.5 h turned out to be 16%.

Take `Cn1cnnc1C1CCN(c2cncc(-n3cccn3)n2)CC1`: the cytotoxicity at 70.5 h worked out at 1.11%.

In the case of `Cc1ccc(C(C)NC(=O)N2CCN(S(C)(=O)=O)CC2)o1` (stereo not given), the cytotoxicity at 70.5 h came out at 1.52%.

Consider `CC(C)c1cc(C(=O)N2CCCC(Cn3cc(CO)nn3)C2)on1` (stereo not given), for which the cytotoxicity at 70.5 h is -2.32%.

With `CC[C@@H](Cn1ncc2ccccc2c1=O)NC(=O)c1cnccn1`, the cytotoxicity at 70.5 h was -4.08%.

Consider `O=C(Cc1ccc2c(c1)CCC2)N1CCN(c2cnccn2)CC1`, for which the cytotoxicity at 70.5 h came to 2.45%.

As for `COc1cccc([C@@H]2CN(C3CCCC3)C[C@H]2C(=O)O)c1`, the cytotoxicity at 70.5 h was -2.63%.

Regarding `O=C(O)c1ccccc1-c1ccc(CN2CCC(CO)C2)cc1` (stereo not given), the cytotoxicity at 70.5 h was -6.69%.

Regarding `COc1ccc(CNC(=O)CNc2cc3c(cc2Cl)OCCCO3)cc1`, the cytotoxicity at 70.5 h was -5.19%.

Regarding `COc1ccc(CN(Cc2cncn2C)CC2CCCO2)cc1` (stereo not given), the cytotoxicity at 70.5 h was -7.47%.

`CNC(=O)C1(N2CCC[C@H]2C(=O)NC2CC2)CCCCC1`: the cytotoxicity at 70.5 h was -3.89%.

As to `Cc1nccn1CCN(C)c1nc(-c2ccc(Cl)cc2)nc2c1CNC2`, the cytotoxicity at 70.5 h is -3.99%.

Regarding `Cc1noc(Cl)c1CC(=O)NCCOc1ccc(F)cc1F`, the cytotoxicity at 70.5 h is -0.975%.

`CCc1nccn1C1CCCN(C(=O)c2ccc3c(c2)OCCO3)C1` (stereo not given): the cytotoxicity at 70.5 h is -9.17%.

As to `O=C(c1cc(Cl)c2c(c1)OCO2)N1CCN(c2ccccn2)CC1`, the cytotoxicity at 70.5 h is -2.19%.

Take `O=C(NC1CC1)C1CN(Cc2ccc3c(c2)OCCO3)CCN1` (stereo not given): the cytotoxicity at 70.5 h was -11.1%.

As to `Cc1cc(NCCCC(F)(F)F)n2nc(C)cc2n1`, the cytotoxicity at 70.5 h is -1.87%.

Take `N#Cc1cc2n(n1)CCN(C(=O)CCc1c[nH]c3ccccc13)C2`: the cytotoxicity at 70.5 h was -10.2%.

Turning to `c1cc2c(cc1Cn1cc(C3CCOC3)nn1)CCCO2` (stereo not given), the cytotoxicity at 70.5 h was -13.2%.

`CN(C)c1nc2c(c(N3CCC4(CCCNC4=O)C3)n1)CCCC2` (stereo not given): the cytotoxicity at 70.5 h is 8.69%.

Consider `Cn1nnnc1SCC1COc2ccccc2O1` (stereo not given), for which the cytotoxicity at 70.5 h is 0.146%.

Consider `COc1cccc(CC(=O)N2CC[C@@H]3NC(=O)CC[C@@H]32)c1`, for which the cytotoxicity at 70.5 h is -0.893%.

Regarding `Cc1c(C(C)NC(=O)Nc2ccccc2F)cnn1C` (stereo not given), the cytotoxicity at 70.5 h is -5.46%.

Turning to `CN(CC1CCC1)C(=O)Nc1cccnc1-n1cncn1`, the cytotoxicity at 70.5 h is -12.4%.

For the compound `CCn1cnnc1CNC(=O)N1CCC(Cc2cccnc2)CC1`, the cytotoxicity at 70.5 h amounted to 34.8%.

In the case of `CC(C)OCCN1CCN(C(=O)c2cccc(-n3cccn3)n2)CC1`, the cytotoxicity at 70.5 h is -0.664%.

Regarding `Cc1ccc(NC2CCN(C(=O)c3cccc4c3ccn4C)CC2)nn1`, the cytotoxicity at 70.5 h was -3.5%.

Take `Cc1cc(C)n(C2CN(Cc3ccc(C(=O)N4CCCC4)cc3)C2)n1`: the cytotoxicity at 70.5 h is -1.2%.

In the case of `CCc1nc(C)c(C(=O)NCCNc2ncnc3sccc23)s1`, the cytotoxicity at 70.5 h was 4.06%.

Turning to `Cc1cc(NC2CCN(Cc3ccccn3)CC2)n2nc(C)c(C)c2n1`, the cytotoxicity at 70.5 h was found to be 0.979%.

For `CC(C)(C)OC(=O)NCC1CCN(C(=O)c2ccccc2O)C1` (stereo not given), the cytotoxicity at 70.5 h is -0.832%.

As for `CN(C)CCNC(=O)c1cc2n(n1)CCN(C(=O)c1ccco1)C2`, the cytotoxicity at 70.5 h is -5.47%.

Take `COc1cccc(OCCn2c(C)c(C)oc2=O)c1`: the cytotoxicity at 70.5 h is 0.585%.

For the compound `N#Cc1ccc(CS(=O)(=O)NC(=O)c2ccc(C#N)cc2)cc1`, the cytotoxicity at 70.5 h was -14.8%.

Consider `c1cncc(COCC2CN(Cc3ccco3)Cc3ccnn3C2)c1` (stereo not given), for which the cytotoxicity at 70.5 h is 0.213%.

As for `CN1C(=O)CC(c2cnn(C)c2)C12CCN(CC1CCOCC1)CC2` (stereo not given), the cytotoxicity at 70.5 h was -9.88%.

Turning to `Cc1nc(CN(C)Cc2nc(-c3ccncc3)no2)co1`, the cytotoxicity at 70.5 h was 3.9%.

For the compound `CN(C)S(=O)(=O)N1C[C@@H]2CC[C@H](C1)N(Cc1ccc3c(c1)OCCO3)C2`, the cytotoxicity at 70.5 h is -3.43%.

Turning to `CC(C1CCN(Cc2cccc(OC(F)F)c2)CC1)N1CCOCC1` (stereo not given), the cytotoxicity at 70.5 h is -9.64%.

For `c1cnc(N2CCCC3(COCCN(c4nncs4)C3)C2)cn1` (stereo not given), the cytotoxicity at 70.5 h is -6.49%.

Regarding `CN(C)CCN1CC(C(=O)N2CCC(c3cccc(O)c3)CC2)CC1=O` (stereo not given), the cytotoxicity at 70.5 h was determined as 2.7%.

As to `COCC1CCCCN1C(=O)c1cc(-c2cccc(OC)c2)n[nH]1` (stereo not given), the cytotoxicity at 70.5 h is -6.73%.

`CN(CCO)C(=O)c1coc(CN2CCN(c3ccccc3F)CC2)n1`: the cytotoxicity at 70.5 h was -7.76%.

`Cc1cccc(OCCNC(=O)C(C)S(=O)(=O)C2CCCC2)c1` (stereo not given): the cytotoxicity at 70.5 h is -9.37%.

`Cc1nn(C)cc1CN1CCN(CC2(c3ccccc3)CC2)CC1`: the cytotoxicity at 70.5 h is -1.67%.

For `Cc1nn(C)c(C)c1CCC(=O)N(C)Cc1ccc2nsnc2c1`, the cytotoxicity at 70.5 h is -4.18%.

As for `O=C(NCC1CCOC1)c1csc(-c2ccccc2)n1` (stereo not given), the cytotoxicity at 70.5 h is -15.4%.

`Cc1cccc(C(=O)N2C[C@@H](C)[C@@]3(CCN(c4ccsc4)C3=O)C2)n1`: the cytotoxicity at 70.5 h is -16.4%.

On to `CCc1ccc(C(=O)N2CCCC(CNS(C)(=O)=O)C2)o1` (stereo not given), for which the cytotoxicity at 70.5 h is -10.7%.

Turning to `COCCNC(=O)NC1CCN(c2cnn(C)c2)C1` (stereo not given), the cytotoxicity at 70.5 h was -4.09%.

For `CC(C)N(C)S(=O)(=O)c1ccc2c(c1)CCN(C(=O)c1cnccn1)C2`, the cytotoxicity at 70.5 h was -5.23%.

`Cc1cc2nccc(C3CCN(C(=O)c4ccccc4F)CC3)n2n1`: the cytotoxicity at 70.5 h is -4.04%.

On to `c1cc(CCN2CCC(NCc3ccsc3)CC2)ccn1`, for which the cytotoxicity at 70.5 h came out at 15.8%.

On to `Cc1cc(CCC(=O)N2CC[C@H](O)C2)ccc1Br`, for which the cytotoxicity at 70.5 h was found to be 1.1%.

As to `Cc1ccc(C(=O)N2CCCC(Nc3ccc(F)cc3)C2)cc1` (stereo not given), the cytotoxicity at 70.5 h is -1.63%.

In the case of `CC(CCc1ncnn1Cc1cccc(Cl)c1)N1CCCC1` (stereo not given), the cytotoxicity at 70.5 h is -9.23%.

`O=C1CN(C(=O)CC2c3ccccc3CCc3ccccc32)CCN1`: the cytotoxicity at 70.5 h turned out to be 2.75%.

As to `CC(=O)NC1CCN(c2c(C#N)cnc3c(C)cc(F)cc23)CC1`, the cytotoxicity at 70.5 h turned out to be 0.242%.

For the compound `CCc1ncnc2c1CCN(Cc1ccc(OC)cc1)CC2`, the cytotoxicity at 70.5 h was -8.97%.

Consider `COCCNC(=O)[C@@]12CCO[C@@H]1CCN(Cc1ccc(OC)cc1)C2`, for which the cytotoxicity at 70.5 h was -5.1%.

Take `CC(NC(=O)N(C)Cc1ccncc1)c1nncn1C` (stereo not given): the cytotoxicity at 70.5 h was -4.45%.

Regarding `CN(Cc1cccs1)S(=O)(=O)c1ccc(C(F)(F)F)nc1`, the cytotoxicity at 70.5 h was -20.9%.

As to `O=c1cccnn1CC1CN(Cc2ccsc2)Cc2nccn2C1` (stereo not given), the cytotoxicity at 70.5 h stood at 0.993%.

In the case of `CCCOc1ccc2c(c1)OCC(C(=O)NC(C)Cn1cccn1)=C2` (stereo not given), the cytotoxicity at 70.5 h came out at 1.23%.

As to `COCCn1cncc1-c1nc2c([nH]1)CC(C)(C)CNC2=O`, the cytotoxicity at 70.5 h is -4.1%.

Take `Cc1ccc(NS(=O)(=O)c2cccc(C#N)c2)c(CN(C)C)c1`: the cytotoxicity at 70.5 h turned out to be 0.936%.

As to `Cc1cc(CN2CCc3nc(C(C)C)nc(O)c3CC2)c(C)s1`, the cytotoxicity at 70.5 h was -0.545%.

For `Cn1c(NC(=O)CNC(=O)C2CC2)nc2cc(Cl)ccc21`, the cytotoxicity at 70.5 h was -7.94%.

For `COc1nn(C)c2c1CCCN(C(=O)c1cccs1)C2`, the cytotoxicity at 70.5 h is -23.5%.

With `CC(=O)Nc1ccc(-n2cncn2)c(F)c1`, the cytotoxicity at 70.5 h was -2.56%.

Regarding `O=C(NCCNc1ccc(C(F)(F)F)cn1)c1ccc(F)cc1Cl`, the cytotoxicity at 70.5 h was -3.01%.

Take `Cc1ccc(N2CCCC3(CCN(C(=O)NC4CCCC4)C3)C2)nn1` (stereo not given): the cytotoxicity at 70.5 h was -12.8%.

As for `O=C(N1CCOCC1)[C@@]12CCO[C@@H]1CCN(C1CCC1)C2`, the cytotoxicity at 70.5 h came to 46%.

On to `CC1CN(CC(=O)NC(C2CC2)C2CC2)CCN1Cc1nccn1C` (stereo not given), for which the cytotoxicity at 70.5 h is -3.28%.

On to `CCN(Cc1cccc(C)c1)Cn1nc(C)c2c(C)onc2c1=O`, for which the cytotoxicity at 70.5 h is -10.8%.

`N#CC1(NC(=O)COC(=O)Cn2cccn2)CCCC1`: the cytotoxicity at 70.5 h was -7.86%.

Consider `CN(C)CCOCC1CN(Cc2ccoc2)Cc2nnn(C)c21` (stereo not given), for which the cytotoxicity at 70.5 h was -11.2%.

Turning to `CCc1nc2n(n1)CC(NCc1nc(C)c(C)o1)CC2` (stereo not given), the cytotoxicity at 70.5 h is -5.85%.

As to `CC(C)c1noc(C(C)N2CCN(Cc3ccccc3C#N)CC2)n1` (stereo not given), the cytotoxicity at 70.5 h was 2.84%.

For the compound `O=C(NCCNc1ccc(C(F)(F)F)cn1)c1ccc(Br)cc1F`, the cytotoxicity at 70.5 h amounted to 17.1%.
